Usually T/C stands for the ratio of treated to control.

Several values for one entry are separate records, joined by “and”; a condition that tells them apart may be missing. Equal entries are not always repeated.

The assay relates to BDF1 mice, Adenocarcinoma 755 s.c., tumor weight T/C. As to the kind of experiment: NCI In Vivo Anticancer Drug Screen. Data for tumor model Adenocarcinoma 755 (subcutaneous) in B6D2F1 (BDF1) mice. To be noted: endpoint: mean tumor weight, higher = larger tumour. In outline: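 Transplantable tumor implanted; mice dosed with compound or vehicle; survival or tumor size recorded; ratio of treated to vehicle control reported.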

Setting [1] is: dose: 28.0 mg/kg/injection, schedule: Q01DX011 (ip), vehicle: saline.
The mark [2] stands for this setting: dose: 18.75 mg/kg/injection, schedule: Q01DX011 (ip), vehicle: methylcellulose (MC).
Where [3] appears, read: dose: 37.5 mg/kg/injection, schedule: Q01DX011 (ip), vehicle: methylcellulose (MC).
[4] abbreviates: dose: 75.0 mg/kg/injection, schedule: Q01DX011 (ip), vehicle: methylcellulose (MC).

On to `Cn1ncc2c([N+](C)(C)C)ncnc21`, for which the T/C (dose: 25.0 mg/kg/injection, schedule: Q01DX011 (ip), vehicle: saline) was 82 % of control and the T/C (dose: 75.0 mg/kg/injection, schedule: Q01DX011 (ip), vehicle: saline) was 111 % of control.

Regarding `CC1CN1P(=S)(N1CCCC1)N1CC1C` (stereo unspecified), the T/C runs as follows: (dose: 14.0 mg/kg/injection, schedule: Q01DX011 (ip), vehicle: carboxymethylcellulose (CMC)) 82 % of control; (dose: 14.0 mg/kg/injection, schedule: Q01DX011 (ip), vehicle: saline) 63 % of control; (dose: 28.0 mg/kg/injection, schedule: Q01DX011 (ip), vehicle: carboxymethylcellulose (CMC)) 58 % of control; under setting [1], 43 % of control; (dose: 57.0 mg/kg/injection, schedule: Q01DX011 (ip), vehicle: carboxymethylcellulose (CMC)) 15 % of control; (dose: 57.0 mg/kg/injection, schedule: Q01DX011 (ip), vehicle: saline) 21 % of control.

On to `CC(C)(COS(C)(=O)=O)C(=O)N1CCN(C(=O)C(C)(C)COS(C)(=O)=O)CC1`, for which the T/C was 162 % of control (dose: 2.4 mg/kg/injection, schedule: Q01DX011 (ip), vehicle: carboxymethylcellulose (CMC)); 82 % of control (dose: 4.7 mg/kg/injection, schedule: Q01DX011 (ip), vehicle: carboxymethylcellulose (CMC)); 60 % of control (dose: 9.4 mg/kg/injection, schedule: Q01DX011 (ip), vehicle: carboxymethylcellulose (CMC)); 57 % of control (dose: 18.8 mg/kg/injection, schedule: Q01DX011 (ip), vehicle: carboxymethylcellulose (CMC)).

Consider `COC(=O)C1=COC(C)C2CN3CCc4c([nH]c5cc(OC)ccc45)C3CC12` (stereo unspecified), for which the T/C reads like this: (dose: 22.0 mg/kg/injection, schedule: Q01DX011 (ip), vehicle: other) 116 % of control; (dose: 44.0 mg/kg/injection, schedule: Q01DX011 (ip), vehicle: other) 98 % of control; (dose: 87.5 mg/kg/injection, schedule: Q01DX011 (ip), vehicle: other) 80 % of control.

On to `Cn1c(N)nc2c(ncn2C2CC(O)C(CO)O2)c1=O` (stereo unspecified), for which the T/C is, setting by setting: (dose: 30.0 mg/kg/injection, schedule: Q01DX011 (ip), vehicle: carboxymethylcellulose (CMC)) 109 % of control; (dose: 60.0 mg/kg/injection, schedule: Q01DX011 (ip), vehicle: carboxymethylcellulose (CMC)) 82 % of control; (dose: 120.0 mg/kg/injection, schedule: Q01DX011 (ip), vehicle: carboxymethylcellulose (CMC)) 89 % of control.

Consider `CC(Sc1ncnc2nc[nH]c12)c1ccccc1` (stereo unspecified), for which the T/C reads like this: (dose: 0.37 mg/kg/injection, schedule: Q01DX011 (ip), vehicle: methylcellulose (MC)) 60 % of control; (dose: 0.65 mg/kg/injection, schedule: Q01DX011 (ip), vehicle: methylcellulose (MC)) 83 % of control; (dose: 1.11 mg/kg/injection, schedule: Q01DX011 (ip), vehicle: methylcellulose (MC)) 35 % of control; (dose: 1.3 mg/kg/injection, schedule: Q01DX011 (ip), vehicle: methylcellulose (MC)) 97 % of control; (dose: 2.5 mg/kg/injection, schedule: Q01DX011 (ip), vehicle: methylcellulose (MC)) 37 % of control; (dose: 3.33 mg/kg/injection, schedule: Q01DX011 (ip), vehicle: methylcellulose (MC)) 62 % of control. Moreover, the T/C runs as follows: (dose: 5.0 mg/kg/injection, schedule: Q01DX011 (ip), vehicle: methylcellulose (MC)) 12 % of control; (dose: 10.0 mg/kg/injection, schedule: Q01DX011 (ip), vehicle: methylcellulose (MC)) 18 % of control.

On to `CN(C)CCCCl`, for which the T/C was 81 % of control (dose: 25.0 mg/kg/injection, schedule: Q01DX011 (ip), vehicle: other); 83 % of control (dose: 50.0 mg/kg/injection, schedule: Q01DX011 (ip), vehicle: other); 98 % of control (dose: 100.0 mg/kg/injection, schedule: Q01DX011 (ip), vehicle: other).

As to `CCn1cnc2c(SC3CCCC3)ncnc21`, the T/C runs as follows: (dose: 5.0 mg/kg/injection, schedule: Q01DX011 (ip), vehicle: carboxymethylcellulose (CMC)) 16 % of control; (dose: 7.5 mg/kg/injection, schedule: Q01DX011 (ip), vehicle: carboxymethylcellulose (CMC)) 4 % of control; (dose: 10.0 mg/kg/injection, schedule: Q01DX011 (ip), vehicle: carboxymethylcellulose (CMC)) 3 % of control; (dose: 25.0 mg/kg/injection, schedule: Q01DX011 (ip), vehicle: carboxymethylcellulose (CMC)) 14 % of control.

For the molecule `CC1CN1P(=O)(OCCC#N)N1CC1C` (stereo unspecified), the T/C was 90 % of control under setting [1]; 104 % of control (dose: 56.0 mg/kg/injection, schedule: Q01DX011 (ip), vehicle: saline); 77 % of control (dose: 113.0 mg/kg/injection, schedule: Q01DX011 (ip), vehicle: saline); 10 % of control (dose: 225.0 mg/kg/injection, schedule: Q01DX011 (ip), vehicle: saline).

With `CC(=O)OCC(=O)[C@@]1(O)CC[C@H]2[C@@H]3C=C(C)C4=CC(=O)CC[C@]4(C)[C@H]3[C@@H](O)C[C@@]21C`, the T/C by setting is: (dose: 11.2 mg/kg/injection, schedule: Q01DX011 (sc), vehicle: steriod suspending solution) 36 % of control and 57 % of control; (dose: 22.5 mg/kg/injection, schedule: Q01DX011 (sc), vehicle: steriod suspending solution) 42 % of control and 50 % of control; (dose: 45.0 mg/kg/injection, schedule: Q01DX011 (sc), vehicle: steriod suspending solution) 23 % of control and 24 % of control; (dose: 90.0 mg/kg/injection, schedule: Q01DX011 (sc), vehicle: steriod suspending solution) 15 % of control and 16 % of control; (dose: 180.0 mg/kg/injection, schedule: Q01DX011 (sc), vehicle: steriod suspending solution) 10 % of control.

Consider `CCCCn1cnc2c(SCc3ccc(Br)cc3)nc(N)nc21`, for which the T/C runs as follows: (dose: 12.5 mg/kg/injection, schedule: Q01DX011 (ip), vehicle: methylcellulose (MC)) 47 % of control; (dose: 25.0 mg/kg/injection, schedule: Q01DX011 (ip), vehicle: methylcellulose (MC)) 66 % of control; (dose: 50.0 mg/kg/injection, schedule: Q01DX011 (ip), vehicle: methylcellulose (MC)) 82 % of control; (dose: 100.0 mg/kg/injection, schedule: Q01DX011 (ip), vehicle: methylcellulose (MC)) 49 % of control.

In the case of `CC(C)CSc1nc(N)nc2c1ncn2C1OC(CO)C(O)C1O` (stereo unspecified), the T/C (dose: 2.32 mg/kg/injection, schedule: Q01DX011 (ip), vehicle: methylcellulose (MC)) is 54 % of control; the T/C (dose: 4.65 mg/kg/injection, schedule: Q01DX011 (ip), vehicle: methylcellulose (MC)) is 37 % of control; the T/C (dose: 9.3 mg/kg/injection, schedule: Q01DX011 (ip), vehicle: methylcellulose (MC)) was 25 % of control; the T/C under setting [2] was 12 % of control and 15 % of control; the T/C under setting [3] was 3 % of control; the T/C under setting [4] is 2 % of control. Also, under “dose: 150.0 mg/kg/injection, schedule: Q01DX011 (ip), vehicle: methylcellulose (MC)”, the T/C was 2 % of control.

Turning to `CC(C)CCSc1nc(N)nc2nc[nH]c12`, the T/C is, setting by setting: (dose: 4.68 mg/kg/injection, schedule: Q01DX011 (ip), vehicle: methylcellulose (MC)) 59 % of control; (dose: 9.37 mg/kg/injection, schedule: Q01DX011 (ip), vehicle: methylcellulose (MC)) 29 % of control; under setting [2], 21 % of control; under setting [3], 12 % of control.

For `CC(=O)OCC(=O)[C@@]1(O)CC[C@H]2[C@@H]3C[C@H](C)C4=CC(=O)C=C[C@]4(C)[C@H]3[C@@H](O)C[C@@]21C`, the T/C was 70 % of control (dose: 2.5 mg/kg/injection, schedule: Q01DX011 (sc), vehicle: steriod suspending solution); 77 % of control (dose: 3.8 mg/kg/injection, schedule: Q01DX011 (sc), vehicle: steriod suspending solution); 57 % of control (dose: 5.0 mg/kg/injection, schedule: Q01DX011 (sc), vehicle: steriod suspending solution); 68 % of control (dose: 7.5 mg/kg/injection, schedule: Q01DX011 (sc), vehicle: steriod suspending solution); 35 % of control (dose: 10.0 mg/kg/injection, schedule: Q01DX011 (sc), vehicle: steriod suspending solution); 37 % of control (dose: 15.0 mg/kg/injection, schedule: Q01DX011 (sc), vehicle: steriod suspending solution). In addition, the T/C by setting is: (dose: 20.0 mg/kg/injection, schedule: Q01DX011 (sc), vehicle: steriod suspending solution) 25 % of control and 40 % of control; (dose: 40.0 mg/kg/injection, schedule: Q01DX011 (sc), vehicle: steriod suspending solution) 14 % of control and 20 % of control; (dose: 80.0 mg/kg/injection, schedule: Q01DX011 (sc), vehicle: steriod suspending solution) 6 % of control.

For `COc1cc(C=O)cc(O)c1O`, the T/C (dose: 62.5 mg/kg/injection, schedule: Q01DX011 (ip), vehicle: methylcellulose (MC)) is 72 % of control; the T/C (dose: 125.0 mg/kg/injection, schedule: Q01DX011 (ip), vehicle: methylcellulose (MC)) was 58 % of control; the T/C (dose: 250.0 mg/kg/injection, schedule: Q01DX011 (ip), vehicle: methylcellulose (MC)) was 40 % of control.

Consider `Nc1ncnc2c1ncn2CCCl`, for which the T/C reads like this: under setting [3], 84 % of control; under setting [4], 31 % of control.

These data come from PubChem BioAssay AID180 (DTP/NCI, 2004).
